Experimental data published in patent publication US20240316038A1, “APOL1 INHIBITORS AND METHODS OF USE” (Maze Therapeutics, Inc., priority 2021, published 2024).

Experiments:
APOL1 G2 [1] = molecular target: T1, APOL1 G2 (Homo sapiens, UniProt O14791, DEL388-389); experiment: APOL1 calcium transport inhibition assay (GCaMP6f calcium influx, FLIPR) in HEK T-REx/GCaMP6f/APOL1 G2 K6.3 cells; type: cell-based; settings: inhibition of APOL1-mediated calcium influx; geometric mean of at least 2 assay runs, † = single assay run (technical duplicate)
T1 construct: expressed in transfected cells; host or cells: HEK293 T-REx clonal lines: HEK T-REx/GCaMP6f/APOL1 G2 K6.3 in A1, HEK293/T-REx APOL1 G2/clone #2 in A2
T1 sequence (O14791 with tags, fused parts or gaps DEL388-389): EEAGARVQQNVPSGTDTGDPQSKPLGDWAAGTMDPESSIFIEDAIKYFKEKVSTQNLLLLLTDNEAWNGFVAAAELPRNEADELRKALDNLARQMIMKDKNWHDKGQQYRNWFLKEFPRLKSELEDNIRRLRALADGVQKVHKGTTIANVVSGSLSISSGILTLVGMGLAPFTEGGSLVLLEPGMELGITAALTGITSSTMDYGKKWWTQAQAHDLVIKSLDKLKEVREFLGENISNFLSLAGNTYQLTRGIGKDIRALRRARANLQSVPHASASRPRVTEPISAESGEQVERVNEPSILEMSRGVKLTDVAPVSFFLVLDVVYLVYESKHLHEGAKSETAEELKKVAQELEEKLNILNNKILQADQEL
Procedure, shortened: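 HEK293 cells stably expressing GCaMP6f, APOL1 G2 induced 6 h with doxycycline (20 ng/mL added), then washed into Ca2+-free Tyrode's buffer pH 7.4. Compounds (8-point dose response) preincubated 10 min at room temperature, then Ca2+ injected to 5 mM final and influx read on FLIPR. AC50 reported as geometric mean of runs.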

APOL1 G2 [2] = molecular target: T1, APOL1 G2; experiment: Rescue of HEK293 cell death caused by overexpression of APOL1 (CellTiter-Glo luminescence), HEK293/T-REx APOL1 G2/clone #2; type: cell-based; settings: reversal of cell death caused by overexpression of APOL1; geometric mean of at least 2 assay runs, † = single assay run (technical duplicate)
Procedure, shortened: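 HEK293/T-REx APOL1 G2 clone #2 cells, 5,000/well, induced with 6 ng/mL doxycycline and exposed to compound (8-point, 3-fold dilutions, 0.5% DMSO) for 17 h at 37 °C. Viability by CellTiter-Glo luminescence; EC50 for reversal of APOL1-induced death from a four-parameter logistic fit, geometric mean of ≥2 runs.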

Structure (SMILES)	AC50 (APOL1 G2 [1]) [nM]	EC50 (APOL1 G2 [2]) [nM]
C[C@@H]1C[C@H](COc2ccc(S(=O)(=O)C3CNC3)cc2)CN1CCc1cc(Cl)cc(C#N)c1 [Compound 161, 3-{2-[(2R,4S)-4-{[4-(azetidine-3-sulfonyl)phenoxy]methyl}-2-methylpyrrolidin-1-yl]ethyl}-5-chlorobenzonitrile]	878	191
CN(c1ccc(OC[C@@H](O)CN2CCC(c3cccc(Cl)c3)C2(C)C)cc1)S(C)(=O)=O (single isomer, unassigned) [Compound 69, N-(4-((S)-3-((S) or (R)-3-(3-chlorophenyl)-2,2-dimethylpyrrolidin-1-yl)-2-hydroxypropoxy)phe-nyl)-N-methylmethanesulfon-amide]	12900	> 30000
C[C@@H]1C[C@H](COc2ccc(S(=O)(=O)CCCS(C)(=O)=O)cc2)CN1CCc1cc(Cl)cc(C#N)c1 [Compound 164, 3-chloro-5-{2-[(2R,4S)-4-{[4-(3-methanesulfonylpro-panesulfonyl)phe-noxy]methyl}-2-methylpyrrolidin-1-yl]ethyl}benzonitrile]	364	34.1
Cc1cc(C#N)cc(CCN2C[C@@H](COc3ccc(S(C)(=O)=O)cc3)[C@H](C)C2)c1 [Compound 198, 3-{2-[(3S,4S)-3-[(4-methanesulfonylphenoxy)methyl]-4-methylpyrrolidin-1-yl]ethyl}-5-methylbenzonitrile]	197	71.5
CC1CC(COc2ccc(S(C)(=O)=O)cc2)CN1CCc1cccc(C#N)c1 (single isomer, unassigned) [Compound 139, 3-{2-[(2S,4R or 2R,4S or 2S,4S or 2R,4R)-4-[(4-methanesulfon-ylphenoxy)meth-yl]-2-methyl-pyrrolidin-1-yl]-ethyl}benzo-nitrile]	> 10000	3230
CCN(CCc1cccc(Cl)c1)C[C@H](O)COc1ccc(N(C)S(C)(=O)=O)cc1 [Compound 60, (S)-N-(4-(3-((3-chlorophenethyl)(ethyl)amino)-2-hydroxypropoxy)phenyl)-N-methylmethanesulfonamide]	< 267	306
CN(c1ccc(NCC(O)CNCCc2cccc(Cl)c2)cc1)S(C)(=O)=O (single isomer, unassigned) [Compound 106, (R) or (S)-N-(4-((3-((3-chlorophenethyl)a-mino)-2-hydroxypropyl)ami-no)phenyl)-N-methylmethanesulfon-amide]	2790	6240
C[C@@H]1C[C@H](COc2ccc(S(=O)(=O)CCCS(C)(=O)=O)cc2)CN1CCc1cccc(C#N)c1 [Compound 162, 3-{2-[(2R,4S)-4-{[4-(3-methanesulfonylpro-panesulfonyl)phe-noxy]methyl}-2-methylpyrrolidin-1-yl]ethyl}benzonitrile]	233	27.9
N#Cc1cc(Cl)cc(CCN2CCN[C@H](COc3ccc(S(=O)(=O)CCO)cc3)C2)c1 [Compound 182, 3-chloro-5-{2-[(3S)-3-{[4-(2-hydroxyethane-sulfonyl)phenoxy]methyl}pi-perazin-1-yl]ethyl}benzo-nitrile]	396	399
CN(c1ccc(OC[C@H](O)CN2CCC(c3cccc(Cl)c3)C2)cc1)S(C)(=O)=O (single isomer, unassigned) [Compound 79, N-(4-((R)-3-((R) or (S)-3-(3-chlorophenyl)pyrro-lidin-1-yl)-2-hydroxypropoxy)phe-nyl)-N-methylmethanesulfon-amide]	1290	> 13700
C[C@@H]1C[C@H](COc2ccc(S(C)(=O)=O)cc2)CN1CC(O)c1cccc(Cl)c1 (single isomer, unassigned) [Compound 214, (1R) or (1S)-1-(3-chlorophenyl)-2-[(2R,4S)-4-[(4-methanesulfonylphenoxy)methyl]-2-methylpyrrolidin-1-yl]ethan-1-ol]	428	679
COC(CN1CCC[C@H](COc2ccc(S(C)(=O)=O)cc2)C1)c1cccc(Cl)c1 (single isomer, unassigned) [Compound 24, (S)-1-((S)-2-(3-chlorophenyl)-2-methoxyethyl)-3-((4-(methylsulfonyl)phenoxy)methyl)piperidine or (S)-1-((R)-2-(3-chlorophenyl)-2-methoxyethyl)-3-((4-(methylsulfonyl)phenoxy)methyl)piperidine]	501	334

The next lines start with results.

AC50 (APOL1 G2 [1]) [nM]	Structure (SMILES)	EC50 (APOL1 G2 [2]) [nM]
1980	CS(=O)(=O)c1ccc(OCC2CN(CCc3cccc(Cl)c3)CCC2O)cc1 (single isomer, unassigned) [Compound 29, (3S,4R) or (3R,4R) or (3S,4S) or (3R,4S)-1-(3-chlorophenethyl)-3-((4-(methylsulfonyl)phenoxy)methyl)piperidin-4-ol]	> 12200
1720	CN(c1ccc(OCC2CN(CCc3cccc(Cl)c3)CCCO2)cc1)S(C)(=O)=O (stereo not drawn) [Compound 10, N-(4-((4-(3-chlorophenethyl)-1,4-oxazepan-2-yl)methoxy)phenyl)-N-methylmethane-sulfonamide]	2450
> 25000	C[C@]1(O)CN(CCc2cccc(Cl)c2)C[C@@H]1COc1ccc(S(C)(=O)=O)cc1 (single isomer, unassigned) [Compound 206, (3R,4R or 3S,4S)-1-[2-(3-chlorophenyl)ethyl]-4-[(4-methanesulfonylphenoxy)methyl]-3-methylpyrrolidin-3-ol]	> 30000
1010	CS(=O)(=O)c1ccc(OCC2CCCCN(CCc3cccc(Cl)c3)C2)cc1 (single isomer, unassigned) [Compound 2, (R) or (S)-1-(3-chlorophenethyl)-3-((4-(methylsulfonyl)phenoxy)methyl)azepane]	2960
570	CS(=O)(=O)c1ccc(OC[C@@H](O)CN2CCCCC2Cc2cccc(Cl)c2)cc1 (single isomer, unassigned) [Compound 64, (2S)-1-((R) or (S)-2-(3-chlorobenzyl)piperidin-1-yl)-3-(4-(methylsulfonyl)phenoxy)propan-2-ol]	1120
1070	CS(=O)(=O)c1ccc(OCC2(O)CCCN(CCc3cccc(Cl)c3)C2)cc1 (stereo not drawn) [Compound 4, 1-(3-chlorophenethyl)-3-((4-(methylsulfonyl)phenoxy)methyl) piperidin-3-ol]	2350
< 72.8	C[C@H]1CN(CCc2cccc(Cl)c2)C[C@@H]1COc1ccc(S(=O)(=O)CCCS(C)(=O)=O)cc1 (racemic) [Compound 175, rac-trans-1-[2-(3-chlorophenyl)eth-yl]-3-{[4-(3-methanesulfonylpro-panesulfonyl)phe-noxy]methyl}-4-methylpyrrolidine]	143
91.4	COCCS(=O)(=O)c1ccc(OC[C@H]2CN(CCc3cccc(Cl)c3)C[C@@H]2C)cc1 (single isomer, unassigned) [Compound 110, (3R,4R or 3S,4S)-1-[2-(3-chlorophenyl)ethyl]-3-{[4-(2-methoxyethane-sulfonyl)phenoxy]methyl}-4-methylpyrrolidine]	135
< 236	C[C@@]1(O)CN(CCc2cccc(Cl)c2)C[C@H]1COc1ccc(S(C)(=O)=O)cc1 (racemic) [Compound 205]	1590
3740	C[C@@]1(O)CN(CCc2cccc(Cl)c2)C[C@@H]1COc1ccc(S(C)(=O)=O)cc1 (single isomer, unassigned) [Compound 209, (3R,4S or 3S,4R)-1-[2-(3-chlorophenyl)ethyl]-4-[(4-methanesulfonylphenoxy)methyl]-3-methylpyrrolidin-3-ol pyrrolidine-3-ol]	> 19500
731	CS(=O)(=O)c1ccc(OCC2CN(CCc3cccc(Cl)c3)CCC2O)cc1 (single isomer, unassigned) [Compound 32, (3S,4S) or (3R,4S) or (3S,4R) or (3R,4R)-1-(3-chlorophen-ethyl)-3-((4-(methylsulf-onyl)phenoxy)methyl) piperidin-4-ol]	5770
942	CS(=O)(=O)c1ccc(OCC2(O)CCCN(CCc3cccc(Cl)c3)C2)cc1 (single isomer, unassigned) [Compound 6, (S) or (R) -1-(3-chlorophenethyl)-3-((4-(methylsulfonyl)phenoxy)methyl) piperidin-3-ol]	495
